Experimental findings from US20030109503A1, “Pharmaceutical formulations comprising clavulanic acid alone or in combination with other beta-lactam antibiotics” (SmithKline Beecham p.l.c., priority 1995, published 2003) are described below.

Experiment [1] deals with β-lactamase producing strains of M. catarrhalis. As to the kind of experiment: MIC in agar, serial dilution, alone or with constant clavulanic acid. Type of experiment: cell-based, Moraxella catarrhalis. The method, then: (§1) Determinations of the minimum inhibitory concentration (MIC) were performed in agar using serial dilutions of the test compounds alone or in the presence of constant concentrations of clavulanic acid (2 or 4 μg/ml). The agar used was Mueller Hinton (BBL) supplemented with 5% lysed horse blood in the case of H. influenzae and M. catarrhalis, except for B. fragilis where Wilkins-Chalgren agar (Oxoid) was used. A multipoint inoculator was used to drop 1 μl of undiluted culture of S. aureus, 10-fold dilutions of B. fragilis, H. influenzae and M. catarrhalis and 100-fold dilutions of E. coli and K. pneumoniae onto the surface of the agar, to give an inoculum of approximately 10^4 to 10^5 cfu/spot.

Experiment [2] has as its system plasmid mediated β-lactamase producing strains of K. pneumoniae. The experiment is described as above. In kind it is cell-based, Klebsiella pneumoniae. The method, then: as §1
Experiment [3] deals with β-lactamase producing strains of H. influenzae. The experiment is described as above. In kind it is cell-based. Here is the method: as §1
The test system of experiment [4] is β-lactamase producing strains of S. aureus. The experiment is described as above. In kind it is cell-based. Here is the method:
as §1

Experiment [5] concerns plasmid mediated β-lactamase producing strains of E. coli. Described as above. In kind it is cell-based, Escherichia coli. The method, then: as §1
The next experiment deals with B. fragilis. As to the kind of experiment: MIC in agar (Wilkins-Chalgren), serial dilution, alone or with constant clavulanic acid. In kind it is cell-based, Bacteroides fragilis. Here is the method:
as §1

The mark [6] stands for this setting: clavulanic acid at 2 or 4 μg/ml.
Where [7] appears, read: Gmean MIC values reduced considerably.

Where two headings read alike, the source gives them in different places.

Consider `N[C@@H](C(=O)N[C@@H]1C(=O)N2C(C(=O)O)=C(Cl)CS[C@H]12)c1ccccc1` [cefaclor], for which the MIC range in experiment [1] (M.catarrhalis (14 strains), CA2/CA4 = constant 2 or 4 μg/ml clavulanic acid) is 1 to 8 µg/mL; in experiment [3] (H.influenzae (15 strains), CA2/CA4 = constant 2 or 4 μg/ml clavulanic acid), 2 to 16 µg/mL; in experiment [4] (S.aureus P+ (10 strains), CA2/CA4 = constant 2 or 4 μg/ml clavulanic acid), 1 to 256 µg/mL; in experiment [5] (E.coli R+ (11 strains), CA2/CA4 = constant 2 or 4 μg/ml clavulanic acid), 1 to 32 µg/mL; in the experiment with B. fragilis (B.fragilis (19 strains), CA2/CA4 = constant 2 or 4 μg/ml clavulanic acid), 64 to 512 µg/mL. In addition, the MIC90 stood at 8 µg/mL in experiment [1] (Moraxella catarrhalis, M.catarrhalis (14 strains), CA2/CA4 = constant 2 or 4 μg/ml clavulanic acid); 256 µg/mL in experiment [2] (Klebsiella pneumoniae); 16 µg/mL in experiment [3] (Haemophilus influenzae, H.influenzae (15 strains), CA2/CA4 = constant 2 or 4 μg/ml clavulanic acid); 64 µg/mL in experiment [4] (Staphylococcus aureus, S.aureus P+ (10 strains), CA2/CA4 = constant 2 or 4 μg/ml clavulanic acid); 32 µg/mL in experiment [5] (Escherichia coli); 128 µg/mL in the experiment with B. fragilis (Bacteroides fragilis, B.fragilis (19 strains), CA2/CA4 = constant 2 or 4 μg/ml clavulanic acid). Further, the MIC was found to be 4.88 µg/mL in experiment [1] (Moraxella catarrhalis, M.catarrhalis (14 strains), CA2/CA4 = constant 2 or 4 μg/ml clavulanic acid, read-out: Gmean (geometric mean MIC)); 8 µg/mL in experiment [1] (Moraxella catarrhalis, M.catarrhalis (14 strains), CA2/CA4 = constant 2 or 4 μg/ml clavulanic acid, read-out: MIC75); 17.7 µg/mL in experiment [2] (Klebsiella pneumoniae, read-out: Gmean (geometric mean MIC)); 256 µg/mL in experiment [2] (Klebsiella pneumoniae, read-out: MIC75); 7.64 µg/mL in experiment [3] (Haemophilus influenzae, H.influenzae (15 strains), CA2/CA4 = constant 2 or 4 μg/ml clavulanic acid, read-out: Gmean (geometric mean MIC)); 16 µg/mL in experiment [3] (Haemophilus influenzae, H.influenzae (15 strains), CA2/CA4 = constant 2 or 4 μg/ml clavulanic acid, read-out: MIC75). Moreover, the MIC in experiment [4] (Staphylococcus aureus, S.aureus P+ (10 strains), CA2/CA4 = constant 2 or 4 μg/ml clavulanic acid, read-out: Gmean (geometric mean MIC)) was determined as 12.4 µg/mL; in experiment [4] (Staphylococcus aureus, S.aureus P+ (10 strains), CA2/CA4 = constant 2 or 4 μg/ml clavulanic acid, read-out: MIC75) it was 32 µg/mL; in experiment [4] (Staphylococcus aureus, in the presence of 2 μg/ml clavulanic acid, read-out: geometric mean (Gmean) MIC of cefaclor), 1.13 µg/mL; in experiment [4] (Staphylococcus aureus, in the presence of 4 μg/ml clavulanic acid, read-out: geometric mean (Gmean) MIC of cefaclor) it was 0.73 µg/mL; in experiment [5] (Escherichia coli, read-out: Gmean (geometric mean MIC)), 4.32 µg/mL; in experiment [5] (Escherichia coli, read-out: MIC75), 4 µg/mL. Also, the MIC in the experiment with B. fragilis (Bacteroides fragilis, B.fragilis (19 strains), CA2/CA4 = constant 2 or 4 μg/ml clavulanic acid, read-out: Gmean (geometric mean MIC)) was 151 µg/mL; with B. fragilis (Bacteroides fragilis, B.fragilis (19 strains), CA2/CA4 = constant 2 or 4 μg/ml clavulanic acid, read-out: MIC75), 4 µg/mL.

`O=C(O)[C@H]1/C(=C/CO)O[C@@H]2CC(=O)N21` [clavulanic acid]: the “effect of clavulanic acid on the activity of cefaclor” value in experiment [1] (setting [6]) is recorded as “improved the activity of cefaclor”; in experiment [2] (setting [7]), “improved”; in experiment [3] (setting [6]), “improved the activity of cefaclor”; in experiment [4] (2 and 4 μg/ml clavulanic acid) it was “markedly improved the activity of cefaclor”; in experiment [5] (setting [7]), “improved”; in the experiment with B. fragilis (setting [6]) it was “improved the activity of cefaclor”.
